Experimental data as given in paper PMC4160570, “Effects of proarrhythmic drugs on relaxation time and beating pattern in rat engineered heart tissue” (Basic Research in Cardiology, 2014).
Like-named read-outs stand apart in the source and are kept apart here.

Experiments:
[1] = tested on: mouse; settings: in vivo; cited from earlier work
[2] = tested on: rat engineered heart tissue (EHT); assay: Video-optical analysis of contractile parameters of spontaneously beating rat EHTs (50 nM epinephrine); settings: for significant T2 prolongation (p<0.05 and at least 15 % vs baseline): 1-, 10-, 100-fold FTPC, 50 nM epinephrine, n = 4–8; for irregular beating as the primary effect: sinusoidal fluctuation of twitch amplitudes, time dependent; for ability to mimic the effect of JTV519 on 4AP-induced changes: flecainide 0.5 µM; for effect on 4AP-induced beating irregularity and aftercontractions / T2 values: 4AP 10 mM; for effect on 4AP-induced beating irregularity and aftercontractions: SEA0400 2 µM or JTV519 2 µM; for relaxation remaining prolonged with 4AP in presence of inhibitor: high concentration of 4AP plus SEA0400 or JTV519
[3] = tested on: rat; settings: cited from earlier work
[4] = 4AP 10 mM in absence and presence of the blocker, SEA0400 2 µM, JTV519 2 µM

CC(C)NCC(O)c1ccc(NS(C)(=O)=O)cc1 (racemic) [D,L-sotalol]
LD50 [1]: 790 mg∙kg^-1 (mouse, i. p.) | T2-effective concentrations [2]: 100 fold FTPC | published IKs IC50 relative to threshold for group 1 or 2 effects [2]: at or below the threshold for group 1 or 2 effects | significant T2 prolongation (p<0.05 and at least 15 % vs baseline) [2]: Significant T2 prolongations

CCN(CC)CCCN(c1ccccc1)C1Cc2ccccc2C1 [Aprindine]
significant T2 prolongation (p<0.05 and at least 15 % vs baseline) [2]: Significant T2 prolongations

COc1ccc(CCN2CCC(Nc3nc4ccccc4n3Cc3ccc(F)cc3)CC2)cc1 [Astemizole]
LD50 [1]: 35 mg∙kg^-1 (mouse, i. v.) | effect on force (group 3) ([2]; 1–100× FTPC): decrease in force

CC(C)COCC(CN(Cc1ccccc1)c1ccccc1)N1CCCC1 (stereo not drawn) [Bepridil]
published IKs IC50 relative to threshold for group 1 or 2 effects [2]: at or below the threshold for group 1 or 2 effects | significant T2 prolongation (p<0.05 and at least 15 % vs baseline) [2]: Significant T2 prolongations | irregular beating as the primary effect [2]: induced irregular beating

COc1cc(N)c(Cl)cc1C(=O)NC1CCN(CCCOc2ccc(F)cc2)CC1OC (stereo not drawn) [Cisapride]
LD50 ([3]; in vivo): 4.166 mg∙kg^-1 (rat, p. o.) | significant T2 prolongation (p<0.05 and at least 15 % vs baseline) [2]: Significant T2 prolongations

CC[C@H]1OC(=O)[C@H](C)[C@@H](O[C@H]2C[C@@](C)(OC)[C@@H](O)[C@H](C)O2)[C@H](C)[C@@H](O[C@@H]2O[C@H](C)C[C@H](N(C)C)[C@H]2O)[C@](C)(OC)C[C@@H](C)C(=O)[C@H](C)[C@@H](O)[C@]1(C)O [Clarithromycin]
LD50 ([3]; in vivo): 1.270 mg∙kg^-1 (rat, p. o.) 850 mg∙kg^-1 (mouse, i. p.) | LD50 [1]: 1.270 mg∙kg^-1 (rat, p. o.) 850 mg∙kg^-1 (mouse, i. p.) | published IC50 values for hERG and Ito relative to threshold for T2 prolongation or irregularity [2]: at or below the threshold for T2 prolongation or irregularity | significant T2 prolongation (p<0.05 and at least 15 % vs baseline) [2]: Significant T2 prolongations

CNCCCN1c2ccccc2CCc2ccccc21 [Desipramine]
LD50 [1]: 740 mg∙kg^-1 (mouse, p. o.) | significant T2 prolongation (p<0.05 and at least 15 % vs baseline) [2]: Significant T2 prolongations | irregular beating as the primary effect [2]: induced irregular beating

CN(C)CCOC(c1ccccc1)c1ccccc1 [Diphenhydramine]
effect on contraction time T1 (group 3) ([2]; 1–100× FTPC): prolongation of contraction time T1

CC(C)N(CCC(C(N)=O)(c1ccccc1)c1ccccn1)C(C)C (stereo not drawn) [Disopyramide]
LD50 ([3]; in vivo): 333 mg∙kg^-1 (rat, p. o.) | T2-effective concentrations [2]: 5 fold FTPC | significant T2 prolongation (p<0.05 and at least 15 % vs baseline) [2]: Significant T2 prolongations

CN(CCOc1ccc(NS(C)(=O)=O)cc1)CCc1ccc(NS(C)(=O)=O)cc1 [Dofetilide]
effect on T2 at 100-fold IC50 concentrations [2]: lack of effect | effect on the parameters studied (group 4) ([2]; 1–100× FTPC): without any effect on the parameters studied

O=c1[nH]c2ccccc2n1CCCN1CCC(n2c(=O)[nH]c3cc(Cl)ccc32)CC1 [Domperidone]
significant T2 prolongation (p<0.05 and at least 15 % vs baseline) [2]: Significant T2 prolongations

CC(C)(C)c1ccc(C(=O)CCCN2CCC(OC(c3ccccc3)c3ccccc3)CC2)cc1 [Ebastine]
significant T2 prolongation (p<0.05 and at least 15 % vs baseline) [2]: Significant T2 prolongations

CC(C)(C(=O)O)c1ccc(C(O)CCCN2CCC(C(O)(c3ccccc3)c3ccccc3)CC2)cc1 (stereo not drawn) [Fexofenadine]
significant T2 prolongation (p<0.05 and at least 15 % vs baseline) [2]: Significant T2 prolongations

O=C(NCC1CCCCN1)c1cc(OCC(F)(F)F)ccc1OCC(F)(F)F (stereo not drawn) [Flecainide]
LD50 ([3]; in vivo): 1.346 mg∙kg^-1 (rat, p. o.) | significant T2 prolongation (p<0.05 and at least 15 % vs baseline) [2]: Significant T2 prolongations | ability to mimic the effect of JTV519 on 4AP-induced changes ([2]; data not shown): did not mimic the effect of JTV519

CC[C@H](CO)Nc1nc(NCc2ccccc2)n2ncc(C(C)C)c2n1 [GP 0210]
Effect on EHT contractility ([2]; NCEs tested at 0.1, 1, 10 µM): -

O=C(CCCN1CCC(O)(c2ccc(Cl)cc2)CC1)c1ccc(F)cc1 [Haloperidol]
LD50 ([3]; in vivo): 128 mg∙kg^-1 (rat, p. o.) 30 mg∙kg^-1 (mouse, i. p.) | LD50 [1]: 128 mg∙kg^-1 (rat, p. o.) 30 mg∙kg^-1 (mouse, i. p.) | effect on contraction time T1 (group 3) ([2]; 1–100× FTPC): prolongation of contraction time T1

CCCCCCCN(CC)CCCC(O)c1ccc(NS(C)(=O)=O)cc1 (stereo not drawn) [Ibutilide]
effect on T2 at 100-fold IC50 concentrations [2]: lack of effect | effect on the parameters studied (group 4) ([2]; 1–100× FTPC): without any effect on the parameters studied

CN(C)CCCN1c2ccccc2CCc2ccccc21 [Imipramine]
irregular beating as the primary effect [2]: induced irregular beating

COc1ccc2c(c1)CN(C(=O)CCN1CCC(Cc3ccccc3)CC1)CCS2 [JTV519]
effect on the T2-prolonging effect of 4AP [2, 4]: reduced the effect of 4AP | effect on 4AP-induced beating irregularity and aftercontractions [2]: completely abolished beating irregularity and aftercontractions | T2 values ([2]; SEA0400 2 µM, JTV519 2 µM): 80 ms | relaxation remaining prolonged with 4AP in presence of inhibitor [2]: ~ 200%

OC(c1cc(C(F)(F)F)nc2c(C(F)(F)F)cccc12)C1CCCCN1 (stereo not drawn) [Mefloquine]
LD50 ([3]; in vivo): 880 mg∙kg^-1 (rat, p. o.) | effect on contraction time T1 (group 3) ([2]; 1–100× FTPC): prolongation of contraction time T1

COc1c(N2C[C@@H]3CCCN[C@@H]3C2)c(F)cc2c(=O)c(C(=O)O)cn(C3CC3)c12 [Moxifloxacin]
T2-effective concentrations [2]: 100 fold FTPC | significant T2 prolongation (p<0.05 and at least 15 % vs baseline) [2]: Significant T2 prolongations

O=C1NC(=O)C(c2ccccc2)(c2ccccc2)N1 [Phenytoin]
LD50 ([3]; in vivo): 1.635 mg∙kg^-1 (rat, p. o.) 100 mg∙kg^-1 (mouse, i. p.) | LD50 [1]: 1.635 mg∙kg^-1 (rat, p. o.) 100 mg∙kg^-1 (mouse, i. p.) | EHT-effective concentrations relative to hERG IC50 [2]: relaxation slowing occurred at concentrations below hERG IC50 | concentration at which T2 is prolonged [2]: 1 × FTPC | significant T2 prolongation (p<0.05 and at least 15 % vs baseline) [2]: Significant T2 prolongations

O=c1[nH]c2ccccc2n1C1CCN(CCCC(c2ccc(F)cc2)c2ccc(F)cc2)CC1 [Pimozide]
LD50 [1]: 288 mg∙kg^-1 (mouse, p. o.)

CCN(CC)CCNC(=O)c1ccc(N)cc1 [Procainamide]
significant T2 prolongation (p<0.05 and at least 15 % vs baseline) [2]: Significant T2 prolongations

Cc1nc2n(c(=O)c1CCN1CCC(c3noc4cc(F)ccc34)CC1)CCCC2 [Risperidone]
LD50 ([3]; in vivo): 56,6 mg∙kg^-1 (rat, p. o.)

CCOc1ccc(Oc2ccc(OCc3cc(F)ccc3F)cc2)c(N)c1 [SEA0400]
effect on the T2-prolonging effect of 4AP [2, 4]: reduced the effect of 4AP | effect on 4AP-induced beating irregularity and aftercontractions [2]: completely abolished beating irregularity and aftercontractions | T2 values ([2]; SEA0400 2 µM, JTV519 2 µM): 78 ms | relaxation remaining prolonged with 4AP in presence of inhibitor [2]: ~ 200%

O=C1NCCN1CCN1CCC(c2cn(-c3ccc(F)cc3)c3ccc(Cl)cc23)CC1 [Sertindole]
LD50 [1]: 420 mg∙kg^-1 (mouse, i. p.) | effect on contraction time T1 (group 3) ([2]; 1–100× FTPC): prolongation of contraction time T1

C[C@@H]1CN(c2c(F)c(N)c3c(=O)c(C(=O)O)cn(C4CC4)c3c2F)C[C@H](C)N1 [Sparfloxacin]
significant T2 prolongation (p<0.05 and at least 15 % vs baseline) [2]: Significant T2 prolongations | changes associated with T2 prolongation ([2]; original recording, Supplemental Fig. 4): marked reduction of beating rate and an increase in twitch force

CC/C(=C(\c1ccccc1)c1ccc(OCCN(C)C)cc1)c1ccccc1 [Tamoxifen]
LD50 ([3]; p. o.): 4.100 mg∙kg^-1 (rat, p. o.)

CC(C)(C)c1ccc(C(O)CCCN2CCC(C(O)(c3ccccc3)c3ccccc3)CC2)cc1 (stereo not drawn) [Terfenadine]
effect on T2 (group 3) ([2]; 1–100× FTPC): shortening of T2

CCCCNc1ccc(C(=O)OCCN(C)C)cc1 [Tetracaine]
effect on the T2-prolonging effect of 4AP [2, 4]: increased the T2-prolonging effect of 4AP | ability to mimic the effect of JTV519 on 4AP-induced changes ([2]; data not shown): did not mimic the effect of JTV519

NC1=N[C@H](O)[C@H]2[C@H]3O[C@]4(O)O[C@@H]([C@@H](O)[C@@]2(N1)[C@@H]4O)[C@]3(O)CO [Tetrodotoxin]
effect of pure INa blockers on T1 [2]: did not prolong T1 | effect on the T2-prolonging effect of 4AP [2]: increased the T2-prolonging effect of 4AP

C/C=C(/C)C(=O)O[C@H]1C(C)=C2[C@H]([C@@H]1OC(=O)CCCCCCC)[C@@](C)(OC(C)=O)C[C@H](OC(=O)CCC)[C@@]1(O)[C@H]2OC(=O)[C@@]1(C)O [Thapsigargin]
effect on time of relaxation, alone ([2]; 3–30 nM): did not affect time of relaxation as such | effect on the T2-prolonging effect of 4AP [2, 4]: increased the T2-prolonging effect of 4AP

CSc1ccc2c(c1)N(CCC1CCCCN1C)c1ccccc1S2 (stereo not drawn) [Thioridazine]
irregular beating as the primary effect [2]: induced irregular beating

Cn1c(=O)c2c(ncn2C)n(C)c1=O [caffeine]
effect on beating rate and twitch ([2]; high concentration of caffeine (5 mM)): reduced beating rate and induced a large and wide twitch

C[N+](C)(C)CCOC(N)=O [carbachol]
effect on frequency of beating in the burst ([2]; carbachol 1 µM added to epinephrine 50 nM): reversed epinephrine effect and induced partial stop | EHTs that stopped spontaneous beating ([2]; carbachol 1 µM plus epinephrine): 3/7

CCN(CC)CC(=O)Nc1c(C)cccc1C [lidocaine]
effect of pure INa blockers on T1 ([2]; data not shown): did not prolong T1
